Legend:
Assay type in all cases: cell-based
Design in all cases: expressed in transfected cells
F508del-CFTR [1] = biological target: T1, F508del-CFTR (Homo sapiens, UniProt P13569, DEL508-508); test: Western blot analysis of CFTR expression pattern (C band/B band ratio); conditions: F508del-CFTR/HS-YFP CFBE41o- cells; 24 h; 50 nM and 1 µM; versus DMSO
Description: We then biochemically estimated the rescue of the trafficking defect by analyzing the electrophoretic mobility of mutant CFTR protein. In Western blots, CFTR protein can be detected as two bands B and C, of approximately 150 and 170 kDa, respectively. Band B corresponds to immature, partially glycosylated CFTR, while band C corresponds to the mature fully glycosylated CFTR. In cells expressing wild-type CFTR protein, the prevalent form is band C, while the main form in cells expressing F508del-CFTR is band B, in agreement with the severe trafficking defect caused by this mutation (Figure 8). To estimate the effect of our molecules on CFTR expression pattern, we treated F508del-CFTR/HS-YFP expressing CFBE41o-cells for 24 h with test compounds 9b, 9g, and 9j (50 nM and 1 µM) VX-809 as a positive control or DMSO as a vehicle alone.
The next day, cells were lysed and the obtained lysates were subjected to SDS-PAGE followed by Western blotting (Figure 8A). Western blot images were analyzed with ImageJ software. CFTR bands, analyzed as ROI, were quantified in each lane after normalization for GAPDH as a loading control. […]
Supernatant protein concentration was calculated using the BCA assay (Euroclone, Milan, Italy). For each sample, 10 μg of total proteins was resolved in 4–20% gradient Criterion TGX precast gels, transferred to nitrocellulose membranes (using a Trans-Blot Turbo system; Bio-Rad, Hercules, CA, USA), and analyzed by Western blotting. Proteins were detected using the antibodies described above and subsequently visualized by chemiluminescence using the SuperSignal West Femto Substrate (Thermo Fisher Scientific, Waltham, MA, USA). […] Images were analyzed with ImageJ software (NIH). Bands were analyzed as ROI, normalized against the GAPDH loading control.
Figure 8 Biochemical analysis of the F508del-CFTR expression pattern: (A). […] Quantification of the C band/B band ratio in experiments as in (A). […]

F508del-CFTR [2] = biological target: T1, F508del-CFTR; test: HS-YFP functional assay of corrector combinations with VX-445; conditions: CFBE41o- cells, 24 h, VX-445 3 µM; for effect of combination with VX-445 on F508del-CFTR activity: forskolin 20 µM plus VX-770 1 µM
Experimental: Now, to further characterize the activity of these compounds, we tested the novel derivates 9b, 9g, and 9j, along with VX-809 as a positive control, in combination with VX-445 (3 µM), in CFBE41o-cells stably expressing F508del-CFTR by using the YFP functional assay (Figure 7). To this aim, cells were treated for 24 h with test compounds at different concentrations, in combination with VX-445 (3 µM), and then assayed after maximal stimulation of F508del-CFTR in the presence of forskolin (20 µM) plus VX-770 (1 µM).
CFBE41o-cells co-expressing mutants CFTR and HS-YFP were plated (50,000 cells/well) on clear-bottom 96-well black microplates (Corning Life Sciences, Acton, MA) and grown at 37 °C in 5% CO2 for 24 h. For the corrector assay, CFBE41o-cells were treated for further 24 h with compounds as indicated. The following day, prior to the assay, the culture medium was removed and cells were stimulated for 30 min at 37 °C with 60 µL PBS (containing 137 mM NaCl, 2.7 mM KCl, 8.1 mM Na2HPO4, 1.5 mM KH2PO4, 1mM CaCl2, and 0.5 mM MgCl2) plus forskolin (20 µM) and VX-770 (1 µM).
Microplates containing CFBE41o-cells were then transferred to a plate reader (FluoStar Galaxy; BMG Labtech, Offenburg, Germany) equipped with excitation (HQ500/20X: 500 ± 10 nm) and emission (HQ535/30M: 535 ± 15 nm) filters for YFP (Chroma Technology, Brattleboro, VT, USA). During the assay fluorescence was measured continuously for 14 s with 2 s before and 12 s after injection of an iodide containing solution (165 µL of a modified PBS containing I^- instead of Cl^-; final I^- concentration in the well: 100 mM).
Fluorescence data were normalized for the initial value and fluorescence quenching rate following I^- influx, were determined by fitting the final 10 s of data for each well with an exponential function to extrapolate initial slope (dF/dt).
Figure 7 Functional analysis of corrector combinations. F508del-CFTR activity was determined in CFBE41o-cells with stable expression of the HS-YFP. Cells were treated for 24 h with VX-445 (3 µM) alone or in combination with 9b, or 9g, or 9j, or VX-809 at different concentrations (from 102 nM to 10 µM). The YFP-based assay was performed after stimulation of CFTR activity with forskolin (20 µM) plus VX-770 (1 µM).

F508del-CFTR [3] = biological target: T1, F508del-CFTR; test: HS-YFP functional assay for F508del-CFTR correctors in CFBE41o- cells; conditions: CFBE41o- cells stably expressing F508del-CFTR and HS-YFP; 24 h incubation; stimulation with forskolin 20 µM plus VX-770 1 µM

T1 sequence (P13569 with tags, fused parts or gaps DEL508-508): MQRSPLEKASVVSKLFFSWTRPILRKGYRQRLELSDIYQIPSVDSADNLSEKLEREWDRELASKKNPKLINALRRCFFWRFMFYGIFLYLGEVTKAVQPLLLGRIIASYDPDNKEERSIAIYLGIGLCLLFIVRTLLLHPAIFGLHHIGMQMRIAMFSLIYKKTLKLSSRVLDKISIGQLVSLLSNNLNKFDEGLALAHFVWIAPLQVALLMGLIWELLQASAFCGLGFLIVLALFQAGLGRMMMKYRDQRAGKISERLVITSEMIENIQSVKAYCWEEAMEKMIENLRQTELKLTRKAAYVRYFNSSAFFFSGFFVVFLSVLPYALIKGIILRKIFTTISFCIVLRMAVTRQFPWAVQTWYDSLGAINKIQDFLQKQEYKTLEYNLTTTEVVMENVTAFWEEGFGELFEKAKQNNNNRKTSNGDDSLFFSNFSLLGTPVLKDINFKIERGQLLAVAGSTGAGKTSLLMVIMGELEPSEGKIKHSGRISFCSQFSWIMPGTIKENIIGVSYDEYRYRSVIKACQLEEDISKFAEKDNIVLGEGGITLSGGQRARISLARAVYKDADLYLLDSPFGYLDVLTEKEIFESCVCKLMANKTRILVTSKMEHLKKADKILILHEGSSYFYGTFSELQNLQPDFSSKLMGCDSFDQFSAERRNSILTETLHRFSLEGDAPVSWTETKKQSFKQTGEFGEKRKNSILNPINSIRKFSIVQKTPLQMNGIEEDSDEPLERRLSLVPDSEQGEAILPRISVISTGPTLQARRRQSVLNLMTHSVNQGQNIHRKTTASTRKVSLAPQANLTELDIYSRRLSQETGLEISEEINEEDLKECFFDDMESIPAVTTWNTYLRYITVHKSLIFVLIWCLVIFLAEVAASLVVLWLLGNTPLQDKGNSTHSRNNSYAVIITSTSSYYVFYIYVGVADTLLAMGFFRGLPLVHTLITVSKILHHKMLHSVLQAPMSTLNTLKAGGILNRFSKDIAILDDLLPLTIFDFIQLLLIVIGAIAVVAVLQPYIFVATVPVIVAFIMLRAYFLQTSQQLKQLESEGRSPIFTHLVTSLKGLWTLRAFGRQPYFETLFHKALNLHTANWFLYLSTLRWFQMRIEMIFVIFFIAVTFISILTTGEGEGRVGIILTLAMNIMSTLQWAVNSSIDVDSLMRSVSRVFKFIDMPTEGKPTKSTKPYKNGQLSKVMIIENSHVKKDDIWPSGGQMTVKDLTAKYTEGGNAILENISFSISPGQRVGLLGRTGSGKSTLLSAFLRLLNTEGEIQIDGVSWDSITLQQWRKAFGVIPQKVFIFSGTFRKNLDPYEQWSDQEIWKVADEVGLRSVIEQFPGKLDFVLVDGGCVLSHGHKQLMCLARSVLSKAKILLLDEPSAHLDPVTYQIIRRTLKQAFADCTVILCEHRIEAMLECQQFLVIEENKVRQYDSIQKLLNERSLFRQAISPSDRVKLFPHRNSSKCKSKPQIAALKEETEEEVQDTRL

SMILES	C band/B band ratio (F508del-CFTR [1])	combination with VX-445 compared with VX-809 + VX-445: maximal rescue and activity at low concentration (F508del-CFTR [2])	effect of combination with VX-445 on F508del-CFTR activity (F508del-CFTR [2])	EC50 (F508del-CFTR [3]) [nM]
COc1cccc(-c2nc(NC(=O)C3(c4ccc5c(c4)OCO5)CC3)sc2C(=O)c2ccc(OC(F)(F)F)cc2)c1 [Compound 9j]	significant enhancement	as effective as the combination with the positive control VX-809	clear additive effect	37
COc1ccc(-c2nc(NC(=O)C3(c4ccc5c(c4)OCO5)CC3)sc2C(=O)c2ccc(N3CCCC3)cc2)cc1 [Compound 9g]	significant enhancement	as effective as the combination with the positive control VX-809	clear additive effect	33

— article PMC8955485, “Journey on VX-809-Based Hybrid Derivatives towards Drug-like F508del-CFTR Correctors: From Molecular Modeling to Chemical Synthesis and Biological Assays” (Pharmaceuticals, 2022)
